Measurements from ChEMBL document CHEMBL1131847, “Opsin shift in an aldolase antibody” (Bioorg Med Chem Lett, 1999).
Calls of active or inactive are those of the source. The rule behind the calls is not given here.

Experiment: Compound (1.7 x 10E-3 M) was evaluated for the formation of all-trans retinal schiff base with Lysine residue which exhibits significant Opsin shift of naturally occurring visual pigments; Active
Assay type: functional

In the case of CC1=C(/C=C/C(C)=C/C=C/C(C)=C/C=O)C(C)(C)CCC1, the Opsin shift activity is reported as “Active”.
